Key:
Assay type in all cases: physicochemical
[1] = Polymorph screening with liquid assisted grinding (LAG), XRPD outcome
Protocol: 30 mg of amorphous 5-(3,4-difluorobenzyl)-8-((1r,4r)-4-methylcyclohexyl)-6,9-dioxo-2,5,8-triazaspirol[3.5]nonane-2-carbaldehyde was wetted with solvent (5 μL). Two grinding beads (3 mm diameter) were added and the samples were ground for 2 hours at 500 rpm using a planetary Fritsch Mill (Pulverisette 6). After grinding all solids were analysed by XRPD.
Gums were stored at ambient conditions. Gums and samples containing brittle material were dried in-vacuo at R. T. in a vacuum oven overnight (ca. 200 mbar). Observations were recorded and the samples were further dried in-vacuo at R. T. in a vacuum oven overnight (ca. 5 mbar). Where gums still persisted, the samples were further dried in-vacuo at R. T. in a vacuum oven (ca. 5 mbar) for 3 days. The observations and XRPD analysis are provided in Table 5-G. Further treatment details of gums and brittle materials are summarized in Table 5-H.

[2] = Short-term static storage stability of the solid (XRPD, HPLC)
Protocol: Purity analysis was performed on an Agilent HP1100/Infinity 111260 series system equipped with a diode array detector and using OpenLAB software. The full method details are provided below.
For short-term (8 days or fewer) stability experiments, solid material was placed into open vials at elevated storage conditions, unless otherwise stated. These conditions were achieved using saturated salt solutions at specific temperatures within sealed containers. Storage containers were pre-equilibrated prior to input of samples.

[3] = Competitive slurry experiments between Form I and Form II; conditions: competitive slurry
Description: The results of the competitive slurry experiments are provided below in Table 6.

[4] = Storage at 40° C./75% RH for 7 days

C[C@H]1CC[C@H](N2CC(=O)N(Cc3ccc(F)c(F)c3)C3(CN(C=O)C3)C2=O)CC1
XRPD ([1]; LAG gum/brittle material after drying in-vacuo, solvent EtOH/water 97:3 v/v): Form II
XRPD ([1]; LAG of amorphous material, solvent 1,4-dioxane/water 99:1 v/v): Form II
XRPD ([1]; LAG of amorphous material, solvent 1-PrOH/water 98:2 v/v): Form I
XRPD ([1]; LAG of amorphous material, solvent 15% v/v water in 1-PrOH): Form II
XRPD ([1]; LAG of amorphous material, solvent 15% v/v water in 2-PrOH): Form II
XRPD ([1]; LAG of amorphous material, solvent 15% v/v water in DMSO): Form I
XRPD ([1]; LAG of amorphous material, solvent 15% v/v water in EtOH): Form II
XRPD ([1]; LAG of amorphous material, solvent 15% v/v water in MeOH): Form II
XRPD ([1]; LAG of amorphous material, solvent 15% v/v water in acetone): Form I
XRPD ([1]; LAG of amorphous material, solvent 50% v/v water in 1-PrOH): Form II
XRPD ([1]; LAG of amorphous material, solvent 50% v/v water in DMSO): Form I
XRPD ([1]; LAG of amorphous material, solvent 50% v/v water in EtOH): Form I
XRPD ([1]; LAG of amorphous material, solvent 50% v/v water in acetone): Amorphous
XRPD ([1]; LAG of amorphous material, solvent 80% v/v water in 2-BuOH): Form I
XRPD ([1]; LAG of amorphous material, solvent 85% v/v water in 2-PrOH): Form I
XRPD ([1]; LAG of amorphous material, solvent 85% v/v water in acetone): Amorphous
XRPD ([1]; LAG of amorphous material, solvent 95% v/v water in 2-BuOH): Form I
XRPD ([1]; LAG of amorphous material, solvent Acetone/water 99:1 v/v): Form II
XRPD ([1]; LAG of amorphous material, solvent Acetonitrile/water 1:1 v/v): Form II
XRPD ([1]; LAG of amorphous material, solvent MeOH/water 97:3 v/v): Form II

C[C@H]1CC[C@H](N2CC(=O)N(Cc3ccc(F)c(F)c3)C3(CN(C=O)C3)C2=O)CC1 [Form I, 5-(3,4-difluorobenzyl)-8-((1r,4r)-4-methylcyclohexyl)-6,9-dioxo-2,5,8-triazaspiro[3.5]nonane-2-carbaldehyde]
HPLC purity ([2]; Before Storage): 96.3%
XRPD ([2]; Before Storage): Form I
XRPD ([2]; Storage at 25° C./97% RH for 7 days): Unchanged by XRPD
XRPD [2, 4]: Unchanged by XRPD

C[C@H]1CC[C@H](N2CC(=O)N(Cc3ccc(F)c(F)c3)C3(CN(C=O)C3)C2=O)CC1 [Forms I and II]
XRPD ([3]; EtOAc, 5 °C): Form II
XRPD ([3]; EtOAc/cyclohexane (50:50 v/v), 5 °C): Form II
XRPD ([3]; EtOAc/cyclohexane (50:50 v/v), 50 °C): Form II
XRPD ([3]; EtOAc/cyclohexane (85:15 v/v), 5 °C): Form II
XRPD ([3]; EtOAc/cyclohexane (85:15 v/v), 50 °C): Form II
XRPD ([3]; EtOH, 5 °C): Form II
XRPD ([3]; EtOH, 50 °C): Form II
XRPD ([3]; EtOH/water (15/85 v/v), 50 °C): Form II
XRPD ([3]; EtOH/water (85:15 v/v), 50 °C): Form II
XRPD ([3]; MIBK, 5 °C): Form II
XRPD ([3]; MIBK, 50 °C): Form II
XRPD ([3]; Toluene, 50 °C): Form II
XRPD ([3]; acetonitrile, 5 °C): Form II
XRPD ([3]; acetonitrile, 50 °C): Form II

C1COCCO1.C[C@H]1CC[C@H](N2CC(=O)N(Cc3ccc(F)c(F)c3)C3(CN(C=O)C3)C2=O)CC1 [Form III, 5-(3,4-difluorobenzyl)-8-((1r,4r)-4-methylcyclohexyl)-6,9-dioxo-2,5,8-triazaspiro[3.5]nonane-2-carbaldehyde 1,4-dioxane solvate]
XRPD [2, 4]: converted to crystalline Form II

Source: patent publication US20240132498A1, “CRYSTALLINE FORMS OF 5-(3,4-DIFLUOROBENZYL)-8-((1R,4R)-4-METHYLCYCLOHEXYL)-6,9-DIOXO-2,5,8-TRIAZASPIRO[3.5]NONANE-2-CARBALDEHYDE” (Cytokinetics, Incorporated, priority 2022, published 2024)
